Legend:
Test in all cases: Kinase Profiling (KINOMEscan)
Assay type in all cases: binding
[1] = target: 456 kinases (of these 395 non-mutant kinases) (Homo sapiens, UniProt Q15349); conditions: 10 μM
[2] = target: 456 kinases (of these 395 non-mutant kinases) (Homo sapiens, UniProt Q06418); conditions: TYRO3; 10 μM
[3] = target: 456 kinases (of these 395 non-mutant kinases) (Homo sapiens, UniProt Q13043); conditions: MST1; 10 μM
[4] = target: 456 kinases (of these 395 non-mutant kinases) (Homo sapiens, UniProt P49674); conditions: CSNK1E; 10 μM
[5] = target: 456 kinases (of these 395 non-mutant kinases) (Homo sapiens, UniProt Q9UIK4); conditions: DAPK2; 10 μM
[6] = target: 456 kinases (of these 395 non-mutant kinases) (Homo sapiens, UniProt P29323); conditions: EPHB2; 10 μM
[7] = target: 456 kinases (of these 395 non-mutant kinases) (Homo sapiens, UniProt P10721, T670I/V559D); conditions: KIT(V559D,T670I); 10 μM
[8] = target: 456 kinases (of these 395 non-mutant kinases) (Homo sapiens, UniProt O15146); conditions: MUSK; 10 μM
[9] = target: 456 kinases (of these 395 non-mutant kinases) (Homo sapiens, UniProt Q16512); conditions: PKN1; 10 μM
[10] = target: 456 kinases (of these 395 non-mutant kinases) (Homo sapiens, UniProt Q96BR1); conditions: SGK3; 10 μM
[11] = target: 456 kinases (of these 395 non-mutant kinases) (Homo sapiens, UniProt P49137); conditions: MAPKAPK2; 10 μM
[12] = target: 456 kinases (of these 395 non-mutant kinases) (Homo sapiens, UniProt O60285); conditions: ARK5; 10 μM
[13] = target: 456 kinases (of these 395 non-mutant kinases) (Homo sapiens, UniProt Q02156); conditions: PRKCE; 10 μM
[14] = target: 456 kinases (of these 395 non-mutant kinases) (Homo sapiens, UniProt P11362); conditions: FGFR1; 10 μM
Sequence of 456 kinases (of these 395 non-mutant kinases) (Homo sapiens, UniProt P11362) (P11362 22-822 limits assumed, change not shown): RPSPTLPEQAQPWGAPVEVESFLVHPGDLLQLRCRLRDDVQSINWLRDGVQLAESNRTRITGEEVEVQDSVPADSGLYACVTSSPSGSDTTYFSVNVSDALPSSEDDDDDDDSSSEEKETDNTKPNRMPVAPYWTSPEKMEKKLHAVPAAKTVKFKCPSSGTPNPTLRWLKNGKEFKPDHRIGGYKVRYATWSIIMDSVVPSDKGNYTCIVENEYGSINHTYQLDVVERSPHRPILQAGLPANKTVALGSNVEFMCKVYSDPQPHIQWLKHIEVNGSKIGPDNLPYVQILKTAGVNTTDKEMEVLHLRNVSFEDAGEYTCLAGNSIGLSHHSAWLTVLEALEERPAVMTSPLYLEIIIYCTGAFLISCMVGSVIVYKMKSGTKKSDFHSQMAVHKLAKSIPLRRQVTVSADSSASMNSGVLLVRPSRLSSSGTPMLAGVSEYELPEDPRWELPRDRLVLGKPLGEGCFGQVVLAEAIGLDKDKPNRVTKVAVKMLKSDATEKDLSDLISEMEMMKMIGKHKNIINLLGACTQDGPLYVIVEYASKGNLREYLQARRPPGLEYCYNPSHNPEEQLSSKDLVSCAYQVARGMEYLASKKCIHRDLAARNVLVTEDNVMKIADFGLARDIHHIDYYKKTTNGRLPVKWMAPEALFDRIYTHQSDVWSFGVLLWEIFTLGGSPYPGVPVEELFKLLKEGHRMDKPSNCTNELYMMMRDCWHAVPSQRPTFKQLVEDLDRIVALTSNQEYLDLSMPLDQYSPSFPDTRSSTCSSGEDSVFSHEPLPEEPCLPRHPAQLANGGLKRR

Sequence of 456 kinases (of these 395 non-mutant kinases) (Homo sapiens, UniProt Q06418) (Q06418 41-890 limits assumed, change not shown): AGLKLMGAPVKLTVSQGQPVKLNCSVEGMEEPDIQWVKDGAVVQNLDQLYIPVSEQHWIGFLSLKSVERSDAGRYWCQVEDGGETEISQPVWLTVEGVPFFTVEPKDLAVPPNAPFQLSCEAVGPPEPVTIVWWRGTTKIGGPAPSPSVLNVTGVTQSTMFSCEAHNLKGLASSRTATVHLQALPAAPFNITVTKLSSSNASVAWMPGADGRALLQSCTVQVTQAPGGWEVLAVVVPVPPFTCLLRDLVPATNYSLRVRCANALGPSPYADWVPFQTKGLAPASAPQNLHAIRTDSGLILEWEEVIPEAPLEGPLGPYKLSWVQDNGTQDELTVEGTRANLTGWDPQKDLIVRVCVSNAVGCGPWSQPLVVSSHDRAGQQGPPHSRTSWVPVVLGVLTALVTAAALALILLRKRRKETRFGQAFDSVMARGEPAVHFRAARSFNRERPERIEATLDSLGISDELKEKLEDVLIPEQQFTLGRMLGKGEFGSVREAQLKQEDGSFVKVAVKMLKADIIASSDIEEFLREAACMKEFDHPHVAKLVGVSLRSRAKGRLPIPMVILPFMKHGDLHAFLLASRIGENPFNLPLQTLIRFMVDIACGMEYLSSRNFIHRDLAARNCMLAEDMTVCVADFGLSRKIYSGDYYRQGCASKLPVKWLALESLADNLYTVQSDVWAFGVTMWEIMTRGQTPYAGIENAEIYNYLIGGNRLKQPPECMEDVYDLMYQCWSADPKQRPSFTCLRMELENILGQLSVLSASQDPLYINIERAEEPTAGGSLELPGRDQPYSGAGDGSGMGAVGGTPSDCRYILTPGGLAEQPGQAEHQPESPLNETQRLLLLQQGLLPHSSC
Sequence of 456 kinases (of these 395 non-mutant kinases) (Homo sapiens, UniProt Q16512) (Q16512 2-942 limits assumed, change not shown): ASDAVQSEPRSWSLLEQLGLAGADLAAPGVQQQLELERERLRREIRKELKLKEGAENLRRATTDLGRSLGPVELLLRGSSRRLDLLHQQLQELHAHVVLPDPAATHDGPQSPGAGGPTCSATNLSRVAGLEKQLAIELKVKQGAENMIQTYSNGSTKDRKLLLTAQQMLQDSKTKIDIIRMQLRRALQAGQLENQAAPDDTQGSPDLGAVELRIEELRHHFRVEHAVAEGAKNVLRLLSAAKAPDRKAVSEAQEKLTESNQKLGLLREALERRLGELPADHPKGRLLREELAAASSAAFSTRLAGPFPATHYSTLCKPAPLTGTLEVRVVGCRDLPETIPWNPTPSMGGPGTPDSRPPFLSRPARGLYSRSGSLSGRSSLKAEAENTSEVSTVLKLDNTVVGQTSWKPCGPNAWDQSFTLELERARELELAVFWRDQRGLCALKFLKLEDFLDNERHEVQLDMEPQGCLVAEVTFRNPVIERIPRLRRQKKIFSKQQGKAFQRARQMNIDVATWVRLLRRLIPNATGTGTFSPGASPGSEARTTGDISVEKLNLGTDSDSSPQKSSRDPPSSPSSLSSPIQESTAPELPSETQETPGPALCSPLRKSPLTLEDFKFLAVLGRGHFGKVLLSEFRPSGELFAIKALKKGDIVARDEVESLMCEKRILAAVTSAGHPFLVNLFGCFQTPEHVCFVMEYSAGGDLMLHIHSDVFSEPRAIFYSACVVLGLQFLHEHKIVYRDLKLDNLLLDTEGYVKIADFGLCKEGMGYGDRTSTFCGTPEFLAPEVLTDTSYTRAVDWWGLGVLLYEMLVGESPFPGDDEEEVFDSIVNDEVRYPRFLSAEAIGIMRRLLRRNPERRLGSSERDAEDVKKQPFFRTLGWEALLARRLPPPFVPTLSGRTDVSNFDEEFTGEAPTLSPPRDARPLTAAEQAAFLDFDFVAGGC
Sequence of 456 kinases (of these 395 non-mutant kinases) (Homo sapiens, UniProt P10721, T670I/V559D) (P10721 26-976 V559D/T670I limits assumed): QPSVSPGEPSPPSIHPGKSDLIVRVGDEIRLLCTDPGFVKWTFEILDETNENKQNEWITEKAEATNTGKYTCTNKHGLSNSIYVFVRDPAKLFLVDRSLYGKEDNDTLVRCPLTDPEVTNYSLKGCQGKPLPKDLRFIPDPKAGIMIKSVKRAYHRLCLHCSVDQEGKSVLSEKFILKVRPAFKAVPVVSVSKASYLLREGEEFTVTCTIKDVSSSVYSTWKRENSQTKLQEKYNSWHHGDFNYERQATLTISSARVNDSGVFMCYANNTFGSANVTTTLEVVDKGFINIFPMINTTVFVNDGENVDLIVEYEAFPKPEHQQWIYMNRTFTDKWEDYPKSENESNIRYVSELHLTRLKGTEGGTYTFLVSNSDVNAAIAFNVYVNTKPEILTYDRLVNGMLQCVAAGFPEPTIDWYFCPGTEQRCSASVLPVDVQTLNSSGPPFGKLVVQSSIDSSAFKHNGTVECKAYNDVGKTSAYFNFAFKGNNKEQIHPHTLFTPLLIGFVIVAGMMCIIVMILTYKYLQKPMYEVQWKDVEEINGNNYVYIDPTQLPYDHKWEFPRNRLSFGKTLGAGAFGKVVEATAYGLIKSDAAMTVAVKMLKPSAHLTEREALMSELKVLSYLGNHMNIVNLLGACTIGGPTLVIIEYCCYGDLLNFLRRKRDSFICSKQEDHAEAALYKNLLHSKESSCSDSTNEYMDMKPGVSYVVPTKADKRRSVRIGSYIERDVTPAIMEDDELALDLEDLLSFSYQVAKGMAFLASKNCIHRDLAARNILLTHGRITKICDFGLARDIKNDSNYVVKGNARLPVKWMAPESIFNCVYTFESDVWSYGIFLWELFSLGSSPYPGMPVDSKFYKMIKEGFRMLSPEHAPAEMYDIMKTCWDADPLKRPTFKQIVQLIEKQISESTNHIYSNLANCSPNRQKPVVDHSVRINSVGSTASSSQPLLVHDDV
Sequence of 456 kinases (of these 395 non-mutant kinases) (Homo sapiens, UniProt P29323) (P29323 19-1055 limits assumed, stated change not applied): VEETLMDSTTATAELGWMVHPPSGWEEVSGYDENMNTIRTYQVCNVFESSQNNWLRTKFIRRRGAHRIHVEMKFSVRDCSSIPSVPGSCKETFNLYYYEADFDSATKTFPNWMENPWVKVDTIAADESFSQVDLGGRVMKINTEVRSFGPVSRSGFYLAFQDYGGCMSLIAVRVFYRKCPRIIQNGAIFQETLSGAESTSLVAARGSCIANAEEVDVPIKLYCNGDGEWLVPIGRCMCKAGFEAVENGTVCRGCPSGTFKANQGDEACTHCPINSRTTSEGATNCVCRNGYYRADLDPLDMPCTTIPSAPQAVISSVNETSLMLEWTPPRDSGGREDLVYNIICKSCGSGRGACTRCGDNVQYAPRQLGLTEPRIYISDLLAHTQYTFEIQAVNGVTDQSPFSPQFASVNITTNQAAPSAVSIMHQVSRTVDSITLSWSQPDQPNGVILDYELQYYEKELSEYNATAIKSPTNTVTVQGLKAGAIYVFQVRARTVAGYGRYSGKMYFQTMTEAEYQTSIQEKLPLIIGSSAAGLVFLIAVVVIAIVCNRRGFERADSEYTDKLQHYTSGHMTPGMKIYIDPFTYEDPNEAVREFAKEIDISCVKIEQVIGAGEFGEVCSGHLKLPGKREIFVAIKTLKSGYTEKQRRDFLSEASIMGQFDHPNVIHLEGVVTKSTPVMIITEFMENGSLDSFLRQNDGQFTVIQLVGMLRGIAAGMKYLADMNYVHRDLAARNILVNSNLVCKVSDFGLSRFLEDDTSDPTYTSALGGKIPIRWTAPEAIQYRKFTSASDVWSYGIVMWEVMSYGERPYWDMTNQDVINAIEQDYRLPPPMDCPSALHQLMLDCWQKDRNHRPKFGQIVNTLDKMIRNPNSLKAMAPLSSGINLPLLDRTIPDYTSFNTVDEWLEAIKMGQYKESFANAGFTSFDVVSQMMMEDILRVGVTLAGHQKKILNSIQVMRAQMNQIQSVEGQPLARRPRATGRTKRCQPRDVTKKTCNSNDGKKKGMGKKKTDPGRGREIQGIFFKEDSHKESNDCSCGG

SMILES: CCc1ccccc1NC(=O)c1c(C)nsc1Nc1cnc2cc(F)ccc2n1 [Example 20, N-(2-Ethylphenyl)-5-[(6-fluoroquinoxalin-2-yl)amino]-3-methyl-1,2-thiazole-4-carboxamide]
- % Ctrl @ 10 μM ([1]; RSK3(Kin.Dom.1-N-terminal)): 72 % Ctrl
- % Ctrl @ 10 μM ([1]; RSK3(Kin.Dom.2-C-terminal)): 79 % Ctrl
- % Ctrl @ 10 μM [2]: 56 % Ctrl
- % Ctrl @ 10 μM [3]: 79 % Ctrl
- % Ctrl @ 10 μM [4]: 74 % Ctrl
- % Ctrl @ 10 μM [5]: 73 % Ctrl
- % Ctrl @ 10 μM [6]: 77 % Ctrl
- % Ctrl @ 10 μM [7]: 100 % Ctrl
- % Ctrl @ 10 μM [8]: 91 % Ctrl
- % Ctrl @ 10 μM [9]: 61 % Ctrl
- % Ctrl @ 10 μM [10]: 100 % Ctrl
- % Ctrl @ 10 μM [11]: 89 % Ctrl
- % Ctrl @ 10 μM [12]: 85 % Ctrl
- % Ctrl @ 10 μM [13]: 75 % Ctrl
- % Ctrl @ 10 μM [14]: 94 % Ctrl
